The values that follow come from patent publication US5814630A, “Quinazoline compounds” (Zeneca Limited, priority 1996, dated 1998).

The subject of assay [1] is human naso-pharyngeal cancer cell line KB. Briefly: in vitro inhibition of EGF-stimulated growth of human naso-pharyngeal cancer cell line KB (Test (b)). It is filed as cell-based. Particulars: 72 h, EGF 10 ng/ml, 3 days, MTT, read-out: IC50 in Test (b), inhibition of EGF-stimulated growth of KB cells. How it is done: (b) An in vitro assay which determines the ability of a test compound to inhibit the EGF-stimulated growth of the human naso-pharyngeal cancer cell line KB.
KB cells were seeded into wells at a density of 1×10^4 -1.5×10^4 cells per well and grown for 24 hours in DMEM supplemented with 5% FCS (charcoal-stripped). Cell growth was determined after incubation for 3 days by the extent of metabolism of MTT tetrazolium dye to furnish a bluish colour. Cell growth was then determined in the presence of EGF (10 ng/ml) or in the presence of EGF (10 ng/ml) and a test compound at a range of concentrations. An IC50 value could then be calculated.

Assay [2] addresses T1, EGF receptor tyrosine kinase (Homo sapiens, UniProt P00533).
T1 construct: Receptor tyrosine kinase was obtained in partially purified form from A-431 cells; endogenous in cells; host or cells: A-431 cells (human vulval carcinoma), Triton X-100 solubilised membrane fraction
Briefly: in vitro inhibition of the enzyme EGF receptor tyrosine kinase (Test (a)). The following applies: receptor tyrosine kinase from A-431 cells. It counts as biochemical. The procedure:
(a) An in vitro assay which determines the ability of a test compound to inhibit the enzyme EGF receptor tyrosine kinase. Receptor tyrosine kinase was obtained in partially purified form from A-431 cells (derived from human vulval carcinoma) by the procedures described below which are related to those described by Carpenter et al., J. Biol. Chem., 1979, 254, 4884, Cohen et al., J. Biol. Chem., 1982, 257, 1523 and by Braun et al., J. Biol. Chem., 1984, 259, 2051.
A-431 cells were grown to confluence using Dulbecco's modified Eagle's medium DMEM) containing 5% fetal calf serum (FCS). The obtained cells were homogenised in a hypotonic borate/EDTA buffer at pH 10.1. The homogenate was centrifuged at 400 g for 10 minutes at 0°-4° C. The supernatant was centrifuged at 25,000 g for 30 minutes at 0°-4° C. […]
The test compound/EGF mixture solution (5 μl) was added to the test enzyme solution (10 μl) and the mixture was incubated at 0°-4° C. for 30 minutes. […] Radioactivity present in the filter paper was measured using a liquid scintillation counter (Sequence A). […]
Receptor tyrosine kinase inhibition was calculated as follows: [formula]
The extent of inhibition was then determined at a range of concentrations of test compound to give an IC50 value.

Assay [3] relates to EGF receptor tyrosine kinase. Particulars: Fry et al., Science, 1994, 265, 1093; cited from earlier work.
Assay [4] relates to another carcinoma which does not express EGF receptor tyrosine kinase. The following applies: cited from earlier work.
For assay [5], the system named is human mammary carcinoma which expresses EGF receptor tyrosine kinase. The following applies: athymic nude mice; cited from earlier work.

T1 sequence (P00533 25-1210): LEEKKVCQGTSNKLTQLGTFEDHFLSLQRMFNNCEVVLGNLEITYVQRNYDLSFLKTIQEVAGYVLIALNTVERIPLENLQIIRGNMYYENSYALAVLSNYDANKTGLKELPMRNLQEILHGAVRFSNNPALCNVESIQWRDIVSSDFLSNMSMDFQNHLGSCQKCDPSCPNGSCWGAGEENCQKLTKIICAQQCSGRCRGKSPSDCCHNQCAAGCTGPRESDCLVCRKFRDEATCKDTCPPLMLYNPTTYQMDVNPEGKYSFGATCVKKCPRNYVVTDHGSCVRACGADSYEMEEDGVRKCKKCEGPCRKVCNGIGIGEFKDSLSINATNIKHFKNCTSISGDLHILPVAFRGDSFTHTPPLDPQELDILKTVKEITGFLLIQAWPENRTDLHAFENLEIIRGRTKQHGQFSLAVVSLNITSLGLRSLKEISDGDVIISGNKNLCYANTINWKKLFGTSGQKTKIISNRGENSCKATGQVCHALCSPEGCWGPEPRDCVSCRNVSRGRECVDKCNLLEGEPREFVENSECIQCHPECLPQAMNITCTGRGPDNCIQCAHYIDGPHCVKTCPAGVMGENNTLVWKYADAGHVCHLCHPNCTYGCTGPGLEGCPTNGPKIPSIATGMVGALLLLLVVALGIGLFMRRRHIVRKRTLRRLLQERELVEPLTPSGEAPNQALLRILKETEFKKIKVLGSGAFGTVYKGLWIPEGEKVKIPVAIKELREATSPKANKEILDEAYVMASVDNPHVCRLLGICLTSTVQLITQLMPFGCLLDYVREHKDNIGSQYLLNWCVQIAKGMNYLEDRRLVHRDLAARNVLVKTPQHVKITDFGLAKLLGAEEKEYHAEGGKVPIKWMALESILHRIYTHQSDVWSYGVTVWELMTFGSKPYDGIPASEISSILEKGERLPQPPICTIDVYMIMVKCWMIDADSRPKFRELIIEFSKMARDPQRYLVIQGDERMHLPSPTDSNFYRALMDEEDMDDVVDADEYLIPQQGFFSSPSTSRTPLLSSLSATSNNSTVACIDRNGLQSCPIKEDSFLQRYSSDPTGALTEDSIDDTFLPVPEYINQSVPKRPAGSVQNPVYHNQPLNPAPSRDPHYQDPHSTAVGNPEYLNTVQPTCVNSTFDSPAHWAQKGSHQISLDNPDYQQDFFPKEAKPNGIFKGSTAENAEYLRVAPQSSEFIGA
T1 sequence (P01133 971-1023 partner limits assumed): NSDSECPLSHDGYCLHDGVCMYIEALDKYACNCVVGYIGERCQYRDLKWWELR

In general, IC50 refers to the concentration that inhibits the measured activity by half. For the compound `Fc1ccc(Nc2ncnc3cc(-c4csc(CN5CCOCC5)c4)ccc23)cc1Cl` [Example 5, 4-(3-chloro-4-fluoroanilino)-7-(5-morpholinomethylthien-3-yl)quinazoline], the IC50 in assay [1] turned out to be 120 nM; in assay [2], 42 nM. For `COc1cc2ncnc(Nc3cccc(Br)c3)c2cc1OC` [4-(3-bromoanilino)-6,7-dimethoxyquinazoline], the “inhibition of EGF receptor tyrosine kinase (in words)” value in assay [3] is given as “highly potent inhibitor”.

For the compound `O=CN/C=C/c1cc(O)ccc1O` [erbstatin], the “effect on the growth of another carcinoma” value in assay [4] is given as “without effect”. In assay [5], the “attenuation of growth of a transplanted human mammary carcinoma” value is recorded as “specifically attenuates the growth”.
